# According to publication PMC12251161, “Crucian Carp-Derived ACE-Inhibitory Peptides with In Vivo Antihypertensive Activity: Insights into Bioactivity, Mechanism, and Safety” (Molecules, 2025):
# pIC50: −log10 of the molar value. Where a SMILES comes first, the peptide text is derived from it. [ ]: non-standard residue; d: D form. Hyp = O=C(O)[C@@H]1C[C@@H](O)CN1
# Assays:
# [1] = tested on: angiotensin II; test: Angiotensin II level in SHRs (ELISA); type: in vivo, spontaneously hypertensive rats (SHRs); settings: captopril 12 mg/kg oral, n = 6
# From the text: (§1) Formic acid (≥99%, LC-MS grade), 4-(2-hydroxyethyl) piperazine-1-ethanesulfonic acid (HEPES, ≥99%, ACS grade), ACE (from rabbit lung, EC 3.4.15.1), acetonitrile (ACN, ≥99%, LC-MS grade), and N-[3-(2-Furyl) acryloyl]-Phe-Gly-Gly (FAPGG, ≥99%, ACS grade) were obtained from Sigma-Aldrich Co. (St. Louis, MO, USA). An enzyme-linked immunosorbent assay (ELISA) kit for AngII (catalog no. D731188-0048) was purchased from Sangon Biotech (Shanghai, China). ELISA kits for endothelial nitric oxide synthase (eNOS, catalog no. JL21190-48T) and BK (catalog no. JL21045-48T) were obtained from JONLN Biotechnology Co., Ltd. (Shanghai, China). Nitric Oxide (NO) assay kit (catalog no. A013-2-1) was purchased from Nanjing Jiancheng Bioengineering Institute (Nanjing, Jiangsu, China). All other chemicals were of analytical grade. […]
# (§2) Systolic blood pressure (SBP) was measured using a non-invasive blood pressure monitoring system (BP-2000, Softron Co., Tokyo, Japan) at baseline (0 h) and at 2, 4, 6, 8, and 12 h after administration to evaluate the antihypertensive effects of the test peptides, following the method described by Kurita. The levels of AngII, eNOS, and BK were measured using commercial ELISA kits, while NO levels were determined using the Microwell plate method with a specialized assay kit.
# [2] = tested on: endothelial nitric oxide synthase (eNOS); test: Endothelial nitric oxide synthase level in SHRs (ELISA); type: in vivo, spontaneously hypertensive rats (SHRs); settings: oral, vs model group
# From the text: as §1, §2
# [3] = tested on: nitric oxide (NO); test: Nitric oxide level in SHRs (assay kit); type: in vivo, spontaneously hypertensive rats (SHRs); settings: oral, vs model group
# From the text: as §1, §2
# [4] = tested on: BALB/c mice; test: 90-day oral safety: organ coefficients; type: in vivo; settings: 50 mg/kg/day oral, 90 days; liver, kidneys, spleen, lungs, heart
# Procedure: (§3) A total of 40 healthy 7-week-old BALB/c mice (20 males and 20 non-pregnant females), with body weights within ±15% of the cohort mean, were obtained from Yangzhou University. All animals underwent a 7-day acclimation period under specific pathogen-free conditions prior to the experiment. Mice were housed under standard laboratory conditions: ambient temperature of 20–26 °C, relative humidity of 40–70%, and a 12 h light/dark cycle. General appearance, behavior, food intake, and body weight were monitored daily throughout the study. To evaluate the potential subchronic toxicity of the synthetic GA-Hyp-GAR peptide, a 90-day oral administration study was conducted. Mice were randomly divided into two groups (n = 10 males and 10 females per group): a normal group and a GA-Hyp-GAR-treated group receiving 50 mg/kg/day via daily intragastric gavage. The normal group received an equivalent volume of ultrapure water via the same route. After 90 consecutive days of treatment, all animals were anesthetized and euthanized 24 h after the final dose. […] Organ coefficients (organ weight/body weight × 100%) were calculated to assess potential physiological or pathological effects associated with long-term GA-Hyp-GAR exposure. […]
# [5] = tested on: BALB/c mice; test: 90-day oral safety: hematological parameters; type: in vivo; set-up: Red Cell Distribution Width—CV: unit not given here; settings: 50 mg/kg/day oral, 90 days
# Procedure: (§4) A total of 40 healthy 7-week-old BALB/c mice (20 males and 20 non-pregnant females), with body weights within ±15% of the cohort mean, were obtained from Yangzhou University. All animals underwent a 7-day acclimation period under specific pathogen-free conditions prior to the experiment. Mice were housed under standard laboratory conditions: ambient temperature of 20–26 °C, relative humidity of 40–70%, and a 12 h light/dark cycle. General appearance, behavior, food intake, and body weight were monitored daily throughout the study. To evaluate the potential subchronic toxicity of the synthetic GA-Hyp-GAR peptide, a 90-day oral administration study was conducted. Mice were randomly divided into two groups (n = 10 males and 10 females per group): a normal group and a GA-Hyp-GAR-treated group receiving 50 mg/kg/day via daily intragastric gavage. The normal group received an equivalent volume of ultrapure water via the same route. After 90 consecutive days of treatment, all animals were anesthetized and euthanized 24 h after the final dose. Blood samples were collected via cardiac puncture for hematological and serum biochemical analyses, performed using a Hitachi 3500 fully automated biochemical analyzer (Hitachi High-Tech Science Corp., Tokyo, Japan). Major organs—including the heart, liver, spleen, lungs, and kidneys—were excised, blotted dry, and weighed. Organ coefficients (organ weight/body weight × 100%) were calculated to assess potential physiological or pathological effects associated with long-term GA-Hyp-GAR exposure. Tissues were fixed in 4% paraformaldehyde, embedded in paraffin, sectioned, and stained with hematoxylin and eosin for histopathological evaluation. All animal experiments were conducted in accordance with the ethical guidelines of the Animal Ethics Committee of Nanjing Agricultural University, which approved the study protocol (Protocol No. NJAU-20250120-35).
# [6] = tested on: BALB/c mice; test: 90-day oral safety: serum biochemical parameters; type: in vivo; settings: 50 mg/kg/day oral, 90 days
# Procedure: as §4
# [7] = tested on: BALB/c mice; test: 90-day oral safety: histopathology (H&E); type: in vivo; settings: 50 mg/kg/day oral, 90 days, liver, kidneys, spleen, lungs, heart
# Procedure: as §3
# [8] = biological target: T1, ACE (from rabbit lung, EC 3.4.15.1) (Oryctolagus cuniculus, UniProt P12822); test: ACE-inhibitory activity assay (FAPGG substrate, spectrophotometric); type: biochemical; settings: synthetic peptides; FAPGG 1 mmol/L, 80 mM HEPES, 0.3 M NaCl, pH 8.3, 37 °C; triplicate, sigmoidal dose–response fit; read-out: IC₅₀ ACE inhibition
# T1 construct: ACE (from rabbit lung, EC 3.4.15.1); purchased Sigma-Aldrich Co. (St. Louis, MO, USA); host or cells: rabbit lung tissue
# T1 sequence (P12822 34-1310): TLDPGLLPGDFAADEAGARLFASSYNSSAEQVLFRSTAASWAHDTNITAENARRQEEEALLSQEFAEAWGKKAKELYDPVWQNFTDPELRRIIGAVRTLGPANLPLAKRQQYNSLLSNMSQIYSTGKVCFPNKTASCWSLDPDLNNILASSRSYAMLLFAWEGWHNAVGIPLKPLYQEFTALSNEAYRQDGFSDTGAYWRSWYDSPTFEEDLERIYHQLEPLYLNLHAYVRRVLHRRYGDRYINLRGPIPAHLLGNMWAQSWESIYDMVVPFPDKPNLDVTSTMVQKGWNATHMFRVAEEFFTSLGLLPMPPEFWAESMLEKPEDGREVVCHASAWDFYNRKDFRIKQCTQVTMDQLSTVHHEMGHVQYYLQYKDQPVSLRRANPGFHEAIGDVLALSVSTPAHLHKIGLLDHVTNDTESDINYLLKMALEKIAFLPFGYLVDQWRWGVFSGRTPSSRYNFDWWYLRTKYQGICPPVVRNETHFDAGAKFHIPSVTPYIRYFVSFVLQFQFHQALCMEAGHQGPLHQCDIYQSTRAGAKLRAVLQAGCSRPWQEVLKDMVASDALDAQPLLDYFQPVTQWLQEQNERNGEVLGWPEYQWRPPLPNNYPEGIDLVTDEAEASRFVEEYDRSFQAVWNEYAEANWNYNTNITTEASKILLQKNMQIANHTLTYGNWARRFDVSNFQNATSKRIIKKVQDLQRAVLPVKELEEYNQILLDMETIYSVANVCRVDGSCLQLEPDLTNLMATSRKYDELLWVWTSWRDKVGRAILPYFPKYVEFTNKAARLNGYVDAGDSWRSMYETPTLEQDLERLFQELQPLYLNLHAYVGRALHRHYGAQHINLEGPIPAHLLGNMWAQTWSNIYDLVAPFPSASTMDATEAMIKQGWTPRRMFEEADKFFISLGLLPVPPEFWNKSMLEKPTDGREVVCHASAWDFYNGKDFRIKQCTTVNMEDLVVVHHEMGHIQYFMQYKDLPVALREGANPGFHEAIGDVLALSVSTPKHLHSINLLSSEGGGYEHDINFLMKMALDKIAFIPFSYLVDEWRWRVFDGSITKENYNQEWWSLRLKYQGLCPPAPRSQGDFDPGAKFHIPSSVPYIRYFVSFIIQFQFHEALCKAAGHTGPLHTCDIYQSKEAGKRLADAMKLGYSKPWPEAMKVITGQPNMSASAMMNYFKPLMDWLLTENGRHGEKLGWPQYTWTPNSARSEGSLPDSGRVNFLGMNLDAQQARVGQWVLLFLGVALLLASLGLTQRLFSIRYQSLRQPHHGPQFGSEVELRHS
# Procedure: All other chemicals were of analytical grade.
# All assays were conducted in triplicate.
# [9] = tested on: BALB/c mice; test: 90-day oral safety: mortality, clinical signs, body weight; type: in vivo; settings: 50 mg/kg/day oral, 90 days, male and female
# Procedure: as §3
compound,measurement,setting,value
C[C@H](CS)C(=O)N1CCC[C@H]1C(=O)O [captopril],AngII concentration,[1],220.16 ± 31.67 pg/mL
same,eNOS levels in words,[2],significantly restored both eNOS and NO levels
same,NO levels in words,[3],significantly restored both eNOS and NO levels
"C[C@H](NC(=O)CNC(=O)[C@@H]1C[C@@H](O)CN1C(=O)[C@H](C)NC(=O)CN)C(=O)N[C@@H](CCCNC(=N)N)C(=O)O [GA-Hyp-GAR, Gly-Ala-hydroxyproline-Gly-Ala-Arg] (H-GA[Hyp]GAR-OH)",organ coefficients,[4],organ coefficients did not differ significantly between the GA-Hyp-GAR-treated and normal groups (p > 0.05)
same,hematological parameters in words,[5]; vs control,no statistically significant differences (p > 0.05) between the treated and control groups in key hematological parameters
same,Plateletcrit,"[5]; normal 0.16 ± 0.27, p >0.9999",0.16 ± 0.26%
same,Mean Platelet Volume,"[5]; normal 2.05 ± 3.45, p 0.9798",2.09 ± 3.52 fL
same,Platelet Distribution Width,"[5]; normal 2.91 ± 4.95, p 0.9364",3.09 ± 5.00 fL
same,Platelet Large Cell Ratio,"[5]; normal 3.62 ± 6.29, p 0.9916",3.65 ± 6.26%
same,White Blood Cells,"[5]; normal 4.28 ± 1.72, p 0.3610",3.66 ± 1.19 ×10⁹/L
same,Red Blood Cells,"[5]; normal 10.71 ± 0.83, p 0.2451",11.13 ± 0.73 ×10^12/L
same,Mean Corpuscular Hemoglobin,"[5]; normal 15.65 ± 0.32, p 0.7101",15.70 ± 0.27 pg
same,Red Cell Distribution Width—CV,"[5]; normal 26.58 ± 1.94, p 0.4260",25.95 ± 1.49
same,Red Cell Distribution Width—SD,"[5]; normal 32.81 ± 11.68, p 0.8517",31.99 ± 7.11 fL
same,Hemoglobin,"[5]; normal 167.60 ± 13.10, p 0.1978",174.70 ± 10.50 g/L
same,Mean Corpuscular Hemoglobin Concentration,"[5]; normal 341.80 ± 15.10, p 0.7101",355.90 ± 5.50 g/L
same,Platelet Count,"[5]; normal 675.50 ± 200.50, p 0.9198",683.40 ± 140.00 ×10⁹/L
same,serum biochemical markers of hepatic and renal function in words,[6]; vs normal group,no significant differences (p > 0.05) between the treated and normal groups in markers of hepatic function
same,Triglycerides,"[6]; normal 1.94 ± 0.40, p 0.0526",2.35 ± 0.48 mmol/L
same,Total Cholesterol,"[6]; normal 2.47 ± 0.23, p 0.1796",2.32 ± 0.25 mmol/L
same,Aspartate Aminotransferase,"[6]; normal 2.48 ± 1.03, p 0.9294",2.44 ± 0.96 µkat/L
same,Alkaline Phosphatase,"[6]; normal 3.32 ± 0.65, p 0.2065",2.99 ± 0.46 µkat/L
same,Glucose,"[6]; normal 5.69 ± 3.38, p 0.1654",7.79 ± 3.11 mmol/L
same,Blood Urea Nitrogen,"[6]; normal 7.81 ± 1.53, p 0.6237",8.13 ± 1.33 mmol/L
same,Creatinine,"[6]; normal 14.70 ± 5.80, p 0.2390",18.13 ± 6.76 µmol/L
same,Albumin,"[6]; normal 35.24 ± 1.32, p 0.5021",35.60 ± 1.01 g/L
same,Total Protein,"[6]; normal 58.21 ± 3.77, p 0.9711",58.16 ± 2.09 g/L
same,Alanine Aminotransferase,"[6]; normal 684.30 ± 288.39, p 0.8986",701.81 ± 316.56 nkat/L
same,histopathology of major organs,[7],no observable pathological changes in any of the examined organs
same,pIC50,[8],5.40
same,body weight,[9],Body weight increased steadily in all groups over the study period
same,mortality and signs of toxicity,[9],no mortality or signs of toxicity were observed
"C[C@H](NC(=O)CNC(=O)[C@@H]1C[C@@H](O)CN1)C(=O)N[C@@H](CCCNC(=N)N)C(=O)O [Hyp-GAR, Hydroxyproline-Gly-Ala-Arg] (H-[Hyp]GAR-OH)",pIC50,[8],4.91
